In patent publication US20160297833A1, “THIENOPYRIMIDINES AS MKNK1 AND MKNK2 INHIBITORS” (BAYER PHARMA AKTIENGESELLSCHAFT, priority 2013, published 2016):

Biological target: T1, human full-length MKNK1 (Homo sapiens, UniProt Q9BUB5, T385D)
T1 construct: GST (N); purchased Carna Biosciences 02-145; host or cells: insect cells (baculovirus expression system)
Assay: MKNK1 kinase high ATP assay (TR-FRET)
Type: biochemical
Details: Table 1; MKNK1 kinase high ATP assay, 2 mM ATP; read-out: MKNK1 IC50
Summary of the method: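 Full-length human MKNK1 (T385D) preincubated 15 min at 22 °C with compound in HEPES pH 7.5/MgCl2/DTT buffer; reaction with 2 mM ATP (final) and 0.06 μM biotinylated peptide (final), 30 min at 22 °C.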

T1 sequence (Q9BUB5 1-424 isoform Q9BUB5-2 T344D): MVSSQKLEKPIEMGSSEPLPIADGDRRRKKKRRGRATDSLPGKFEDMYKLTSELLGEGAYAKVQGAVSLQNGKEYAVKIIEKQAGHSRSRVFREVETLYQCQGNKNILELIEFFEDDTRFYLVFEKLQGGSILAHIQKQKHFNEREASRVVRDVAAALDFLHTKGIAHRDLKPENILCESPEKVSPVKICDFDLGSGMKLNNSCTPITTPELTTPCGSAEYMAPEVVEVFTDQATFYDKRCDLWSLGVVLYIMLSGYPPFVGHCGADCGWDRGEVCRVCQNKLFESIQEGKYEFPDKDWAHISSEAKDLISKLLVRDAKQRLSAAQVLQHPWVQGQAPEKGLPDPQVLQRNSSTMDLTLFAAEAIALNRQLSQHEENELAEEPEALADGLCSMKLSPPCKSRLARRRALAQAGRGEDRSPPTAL

SMILES	IC50 [nM]
C[C@@H](N)COc1cc2[nH]ncc2cc1Nc1ncnc2sc3c(c12)CC[C@H](C(=O)N(C)C)C3 [Example 147, (7S)-4-[(6-{[(2R)-2-Aminopropyl]oxy}-1H-indazol-5-yl)amino]-N,N-dimethyl-5,6,7,8-tetrahydro[1]benzothieno[2,3-d]pyrimidine-7-carboxamide]	5.6
CCOc1cc2[nH]ncc2cc1Nc1ncnc2sc3c(c12)CC[C@H](C(=O)N1CC2(COC2)C1)C3 [Example 72, {(7S)-4-[(6-Ethoxy-1H-indazol-5-yl)amino]-5,6,7,8-tetrahydro[1]benzothieno[2,3-d]pyrimidin-7-yl}(2-oxa-6-azaspiro[3.3]hept-6-yl)methanone]	0.7
CCOc1cc2[nH]ncc2cc1Nc1ncnc2sc3c(c12)CC[C@H](C(=O)N(C)CCO)C3 [Example 73, (7S)-4-[(6-Ethoxy-1H-indazol-5-yl)amino]-N-(2-hydroxyethyl)-N-methyl-5,6,7,8-tetrahydro[1]benzothieno[2,3-d]pyrimidine-7-carboxamide]	0.3
COC[C@H](C)N(C)C(=O)[C@H]1CCc2c(sc3ncnc(Nc4cc5cn[nH]c5cc4OC)c23)C1 [Example 283, (7S)-4-[(6-Methoxy-1H-indazol-5-yl)amino]-N-[(25)-1-methoxypropan-2-yl]-N-methyl-5,6,7,8-tetrahydro[1]benzothieno[2,3-d]pyrimidine-7-carboxamide]	0.5
C[C@H]1COCCN1C(=O)[C@H]1CCc2c(sc3ncnc(Nc4cc5cn[nH]c5cc4OC4CN(C(=O)OC(C)(C)C)C4)c23)C1 [Example 267, tert-Butyl 3-[(5-{[(7S)-7-{[(3S)-3-methylmorpholin-4-yl]carbonyl}-5,6,7,8-tetrahydro[1]benzothieno[2,3-d]pyrimidin-4-yl]amino}-1H-indazol-6-yl)oxy]azetidine-1-carboxylate]	0.3
CN(C)C(=O)[C@H]1CCc2c(sc3ncnc(Nc4cc5cn[nH]c5cc4OCCN(C)C(=O)OC(C)(C)C)c23)C1 [Example 256, tert-Butyl {2-[(5-{[(7S)-7-(dimethylcarbamoyl)-5,6,7,8-tetrahydro[1]benzothieno[2,3-d]pyrimidin-4-yl]amino}-1H-indazol-6-yl)oxy]ethyl}methylcarbamate]	43.3
C[C@H](N)COc1cc2[nH]ncc2cc1Nc1ncnc2sc3c(c12)CC[C@H](C(=O)N1CCOC[C@H]1C)C3 [Example 146, {(7S)-4-[(6-{[(2S)-2-Aminopropyl]oxy}-1H-indazol-5-yl)amino]-5,6,7,8-tetrahydro[1]benzothieno[2,3-d]pyrimidin-7-yl}[(3R)-3-methylmorpholin-4-yl]methanone]	13.1
COc1cc2[nH]ncc2cc1Nc1ncnc2sc3c(c12)CC[C@@H](C(=O)N1CCOCC1)C3 [Example 29, {(7R)-4-[(6-Methoxy-1H-indazol-5-yl)amino]-5,6,7,8-tetrahydro[1]benzothieno[2,3-d]pyrimidin-7-yl}(morpholin-4-yl)methanone]	8.7
CN(C)C(=O)[C@H]1CCc2c(sc3ncnc(Nc4cc5cn[nH]c5cc4OCCNC(=O)CC4CCCCC4)c23)C1 [Example 274, (7S)-4-[(6-{2-[(Cyclohexylacetyl)amino]ethoxy}-1H-indazol-5-yl)amino]-N,N-dimethyl-5,6,7,8-tetrahydro[1]benzothieno[2,3-d]pyrimidine-7-carboxamide]	0.3
C[C@H](CN)Oc1cc2[nH]ncc2cc1Nc1ncnc2sc3c(c12)CC[C@H](C(=O)N1CCOC[C@@H]1C)C3 [Example 140, {(7S)-4-[(6-{[(2R)-1-Aminopropan-2-yl]oxy}-1H-indazol-5-yl)amino]-5,6,7,8-tetrahydro[1]benzothieno[2,3-d]pyrimidin-7-yl}[(3S)-3-methylmorpholin-4-yl]methanone]	0.4
COc1cc2[nH]ncc2cc1Nc1ncnc2sc3c(c12)CC[C@H](C(=O)N1CC(N(C)C)C1)C3 [Example 44, [3-(Dimethylamino)azetidin-1-yl]{(7S)-4-[(6-methoxy-1H-indazol-5-yl)amino]-5,6,7,8-tetrahydro[1]benzothieno[2,3-d]pyrimidin-7-yl}methanone]	0.2
